Measurements published in ChEMBL document CHEMBL3352474, “Design, synthesis and biological evaluation of FLT3 covalent inhibitors with a resorcylic acid core” (Bioorg Med Chem, 2014).
One block for each molecule: values may come before it.

Tests used:
[1] = target: Receptor-type tyrosine-protein kinase FLT3 (Homo sapiens, UniProt P36888, ITD); test: Inhibition of recombinant FLT3 ITD mutant (unknown origin) by RBC kinase assay
[2] = target: Receptor-type tyrosine-protein kinase FLT3 (Homo sapiens, UniProt P36888, D835Y); test: Inhibition of recombinant FLT3 D835Y mutant (unknown origin) by TR-FRET assay
[3] = tested on: MV4-11; test: Antiproliferative activity against human MV4-11 cells after 72 hrs by luminescent cell viability assay; format: functional, cell-based; settings: MV4-11, 72 h
[4] = target: T1, Receptor-type tyrosine-protein kinase FLT3 (Homo sapiens, UniProt P36888); test: Inhibition of recombinant FLT3 (unknown origin) by TR-FRET assay
T1 sequence (P36888 whole entry): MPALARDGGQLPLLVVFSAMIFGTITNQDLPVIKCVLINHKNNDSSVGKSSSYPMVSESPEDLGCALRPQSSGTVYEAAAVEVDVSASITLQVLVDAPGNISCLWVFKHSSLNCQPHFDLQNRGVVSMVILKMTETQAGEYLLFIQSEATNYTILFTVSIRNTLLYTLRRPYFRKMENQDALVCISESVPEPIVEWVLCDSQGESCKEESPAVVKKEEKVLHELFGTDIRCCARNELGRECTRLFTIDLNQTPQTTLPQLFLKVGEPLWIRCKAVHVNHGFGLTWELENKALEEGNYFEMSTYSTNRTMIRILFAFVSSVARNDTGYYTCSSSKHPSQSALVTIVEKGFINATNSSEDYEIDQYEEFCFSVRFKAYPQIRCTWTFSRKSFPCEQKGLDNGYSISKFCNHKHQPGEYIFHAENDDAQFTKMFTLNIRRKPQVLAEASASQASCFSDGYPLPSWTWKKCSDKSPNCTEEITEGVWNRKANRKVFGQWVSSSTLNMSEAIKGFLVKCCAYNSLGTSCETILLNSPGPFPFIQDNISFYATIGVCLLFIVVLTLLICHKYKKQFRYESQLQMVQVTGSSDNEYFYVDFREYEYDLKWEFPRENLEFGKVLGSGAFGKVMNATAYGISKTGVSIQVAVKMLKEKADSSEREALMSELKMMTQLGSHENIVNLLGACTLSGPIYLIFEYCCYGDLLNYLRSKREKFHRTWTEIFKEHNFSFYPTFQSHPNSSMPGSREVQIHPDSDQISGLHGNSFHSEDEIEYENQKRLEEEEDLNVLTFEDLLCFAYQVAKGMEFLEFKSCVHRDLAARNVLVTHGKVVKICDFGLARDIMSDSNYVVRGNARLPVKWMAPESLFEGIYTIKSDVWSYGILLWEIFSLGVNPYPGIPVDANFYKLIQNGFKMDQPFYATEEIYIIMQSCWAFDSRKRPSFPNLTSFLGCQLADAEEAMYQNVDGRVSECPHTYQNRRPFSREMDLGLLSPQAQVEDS

[5] = target: MAP kinase-interacting serine/threonine-protein kinase 2 (Homo sapiens) (UniProt Q9HBH9); test: Inhibition of MNK2 (unknown origin) at 10 uM
Chain of MAP kinase-interacting serine/threonine-protein kinase 2 (Homo sapiens) (Q9HBH9 whole entry, looked up): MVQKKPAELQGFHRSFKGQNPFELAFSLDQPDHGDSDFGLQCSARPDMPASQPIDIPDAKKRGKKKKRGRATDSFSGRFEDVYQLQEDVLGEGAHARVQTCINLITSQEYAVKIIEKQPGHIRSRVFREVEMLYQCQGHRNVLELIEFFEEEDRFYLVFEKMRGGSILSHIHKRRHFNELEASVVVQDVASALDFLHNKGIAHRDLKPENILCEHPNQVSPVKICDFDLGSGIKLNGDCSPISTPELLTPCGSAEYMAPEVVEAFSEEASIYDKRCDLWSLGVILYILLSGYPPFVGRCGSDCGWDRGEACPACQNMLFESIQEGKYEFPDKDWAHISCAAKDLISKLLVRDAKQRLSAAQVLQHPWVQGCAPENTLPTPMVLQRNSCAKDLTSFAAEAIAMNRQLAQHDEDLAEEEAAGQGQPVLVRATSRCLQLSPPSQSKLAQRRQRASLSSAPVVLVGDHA

[6] = target: MAP kinase-interacting serine/threonine-protein kinase 1 (Homo sapiens) (UniProt Q9BUB5); test: Inhibition of MNK1 (unknown origin) at 10 uM
Chain of MAP kinase-interacting serine/threonine-protein kinase 1 (Homo sapiens) (Q9BUB5 whole entry, looked up): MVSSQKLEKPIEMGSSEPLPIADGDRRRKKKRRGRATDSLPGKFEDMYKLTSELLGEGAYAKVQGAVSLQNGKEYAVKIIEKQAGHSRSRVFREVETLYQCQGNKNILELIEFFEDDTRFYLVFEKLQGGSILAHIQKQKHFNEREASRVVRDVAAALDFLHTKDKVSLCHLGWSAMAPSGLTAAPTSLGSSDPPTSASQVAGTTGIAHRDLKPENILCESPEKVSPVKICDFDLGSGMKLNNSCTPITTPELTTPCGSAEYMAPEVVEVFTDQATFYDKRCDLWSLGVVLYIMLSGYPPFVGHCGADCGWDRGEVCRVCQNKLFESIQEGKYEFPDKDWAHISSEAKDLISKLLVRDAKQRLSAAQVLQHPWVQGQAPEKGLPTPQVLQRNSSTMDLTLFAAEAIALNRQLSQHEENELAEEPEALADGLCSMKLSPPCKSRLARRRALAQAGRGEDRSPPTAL

[7] = Antiproliferative activity against human THP1 cells assessed as growth inhibition at 5 uM after 72 hrs by luminescent cell viability assay; format: functional; settings: THP-1, 72 h, read-out: GI
[8] = tested on: K562; test: Antiproliferative activity against human K562 cells assessed as growth inhibition at 5 uM after 72 hrs by luminescent cell viability assay; format: functional; settings: K562, 72 h, read-out: GI
[9] = tested on: MV4-11; test: Antiproliferative activity against human MV4-11 cells assessed as growth inhibition at 5 uM after 72 hrs by luminescent cell viability assay; format: functional; settings: MV4-11, 72 h, read-out: GI
[10] = Antiproliferative activity against human HEK293T cells assessed as growth inhibition at 5 uM after 72 hrs by luminescent cell viability assay; format: cell-based, HEK-293T; settings: read-out: GI
[11] = Antiproliferative activity against human THP1 cells after 72 hrs by luminescent cell viability assay; format: functional, cell-based; settings: THP-1, 72 h
[12] = Antiproliferative activity against human HL60 cells assessed as growth inhibition at 5 uM after 72 hrs by luminescent cell viability assay; format: functional; settings: HL-60, 72 h, read-out: GI

SMILES: COc1cc(O)c2c(c1)CCC[C@H](O)[C@H](O)C(=O)/C=C\C[C@H](C)OC2=O
inhibition of growth at 5 µM [7]: 81.5%
IC50 [1]: 0.036 µM
IC50 [2]: 0.011 µM
inhibition of growth at 5 µM [8]: 69.7%
inhibition of growth at 5 µM [9]: 99.7%
inhibition at 72 h, 5 µM [10]: 74.6%
IC50 [3]: 0.01 µM
IC50 [11]: 1.18 µM
inhibition of growth at 5 µM [12]: 86%
IC50 [4]: 0.062 µM

SMILES: C=CS(=O)(=O)NC/C=C/c1cc(OC)cc(O)c1C(=O)OCc1ccc(F)cc1
inhibition of growth at 5 µM [7]: 41.7%
IC50 [1]: ≥ 30 µM
IC50 [2]: ≥ 30 µM
inhibition of growth at 5 µM [8]: 52%
inhibition of growth at 5 µM [9]: 70.5%
inhibition at 72 h, 5 µM [10]: 0%
IC50 [3]: 5.14 µM
IC50 [11]: 6.55 µM
inhibition of growth at 5 µM [12]: 10.9%
IC50 [4]: ≥ 30 µM

SMILES: C=CS(=O)(=O)NC/C=C/c1cc(OC)cc(O)c1C(=O)OCC(C)c1ccccc1 (stereo not given)
inhibition of growth at 5 µM [7]: 5.6%
IC50 [1]: ≥ 30 µM
IC50 [2]: ≥ 30 µM
inhibition of growth at 5 µM [8]: 16.7%
inhibition of growth at 5 µM [9]: 9.6%
inhibition at 72 h, 5 µM [10]: 22.5%
IC50 [3]: 7.73 µM
IC50 [11]: > 10 µM
inhibition of growth at 5 µM [12]: 9.5%
IC50 [4]: ≥ 30 µM

SMILES: COc1cc(O)c(C(=O)OC(C)C)c(/C=C/CNC(C)=O)c1
IC50 [2]: 14.2 µM
IC50 [3]: > 10 µM
IC50 [4]: > 50 µM

SMILES: C=CC(=O)NC/C=C/c1cc(OC)cc(O)c1C(=O)O[C@@H](C)C(C)C
IC50 [1]: ≥ 30 µM
IC50 [2]: ≥ 30 µM
IC50 [3]: > 10 µM
IC50 [4]: ≥ 30 µM

SMILES: C=CS(=O)(=O)NCCCc1cc(OCCN2CCOCC2)cc(O)c1C(=O)OC(C)C
inhibition of growth at 5 µM [7]: 0%
IC50 [1]: 4.23 µM
IC50 [2]: 18.6 µM
inhibition of growth at 5 µM [8]: 13.8%
inhibition of growth at 5 µM [9]: 20.4%
inhibition at 72 h, 5 µM [10]: 28.4%
IC50 [3]: 7.61 µM
IC50 [11]: > 10 µM
inhibition of growth at 5 µM [12]: 2%
IC50 [4]: > 30 µM

SMILES: C=CS(=O)(=O)NC/C=C/c1cc(OC)cc(O)c1C(=O)OCC1CCCCC1
inhibition of growth at 5 µM [7]: 26.5%
IC50 [1]: ≥ 30 µM
IC50 [2]: ≥ 30 µM
inhibition of growth at 5 µM [8]: 27.4%
inhibition of growth at 5 µM [9]: 56.4%
inhibition at 72 h, 5 µM [10]: 31.2%
IC50 [3]: 5.86 µM
IC50 [11]: 7.88 µM
inhibition of growth at 5 µM [12]: 7.5%
IC50 [4]: ≥ 30 µM

SMILES: C=CS(=O)(=O)NC/C=C/c1cc(OC)cc(O)c1C(=O)OCc1ccc(Br)cc1
inhibition of growth at 5 µM [7]: 31.2%
IC50 [1]: ≥ 30 µM
IC50 [2]: ≥ 30 µM
inhibition of growth at 5 µM [8]: 38.4%
inhibition of growth at 5 µM [9]: 61%
inhibition at 72 h, 5 µM [10]: 0%
IC50 [3]: 6.06 µM
IC50 [11]: 6.24 µM
inhibition of growth at 5 µM [12]: 8.1%
IC50 [4]: ≥ 30 µM

SMILES: CCN(CC)C/C=C/C(=O)NC/C=C/c1cc(OC)cc(O)c1C(=O)O[C@@H](C)C(C)C
IC50 [1]: ≥ 30 µM
IC50 [2]: ≥ 30 µM
IC50 [3]: > 10 µM
IC50 [4]: ≥ 30 µM

The next lines start with results.

IC50 [1]: ≥ 30 µM
IC50 [2]: ≥ 30 µM
IC50 [3]: > 10 µM
IC50 [4]: ≥ 30 µM
SMILES: C=CC(=O)NC/C=C/c1cc(OC)cc(O)c1C(=O)OC(C)C

IC50 [1]: ≥ 30 µM
IC50 [2]: ≥ 30 µM
IC50 [3]: > 10 µM
IC50 [4]: ≥ 30 µM
SMILES: C/C=C/C(=O)NC/C=C/c1cc(OCCc2ccc(F)cc2)cc(O)c1C(=O)OC(C)C

inhibition [5]: 5.2%
IC50 [2]: 15.9 µM
inhibition [6]: 12.5%
IC50 [3]: > 10 µM
IC50 [4]: > 30 µM
SMILES: CCN(CC)C/C=C/C(=O)NC/C=C/c1cc(OC)cc(O)c1C(=O)OC(C)C

inhibition [5]: 0.8%
IC50 [1]: 1.11 µM
IC50 [2]: > 30 µM
inhibition [6]: 7.8%
IC50 [3]: 4.04 µM
IC50 [4]: > 30 µM
SMILES: CCN(CC)C/C=C/C(=O)NC/C=C/c1cc(OCCc2ccc(F)cc2)cc(O)c1C(=O)OC(C)C
inhibition of growth at 5 µM [7]: 25.7%
inhibition of growth at 5 µM [8]: 49.8%
inhibition of growth at 5 µM [9]: 84.9%
inhibition at 72 h, 5 µM [10]: 28.5%
IC50 [11]: > 10 µM
inhibition of growth at 5 µM [12]: 36.8%

inhibition [5]: 12.9%
IC50 [2]: 10.5 µM
inhibition [6]: 5.8%
IC50 [3]: > 10 µM
IC50 [4]: 16.2 µM
SMILES: C/C=C/C(=O)NC/C=C/c1cc(OCCCN2CCOCC2)cc(O)c1C(=O)OC(C)C

IC50 [1]: ≥ 30 µM
IC50 [2]: ≥ 30 µM
IC50 [3]: > 10 µM
IC50 [4]: ≥ 30 µM
SMILES: C/C=C/C(=O)NC/C=C/c1cc(OC)cc(O)c1C(=O)OC(C)C
